Tests used:
[1] = system: MCF-7 breast cancer cells; assay: MTT cell viability assay in MCF-7 cells; format: cell-based; details: Homo sapiens, MCF7; for viability at 1 µM: MCF-7, 1 µM; for viability at 1 µM / viability at 10 µM / viability at 25 µM: read-out: Cell Viability (%) ± SD; for viability at 10 µM: MCF-7, 10 µM; for viability at 25 µM: MCF-7, 25 µM; for IC50: MCF-7, MTT, five concentrations (1.0, 5.0, 10.0, 25 and 50 µM)
[2] = target: T1, COX-2 enzyme (Homo sapiens, UniProt P35354); assay: Fluorescence-based COX-2 inhibitor screening assay; format: biochemical
T1 construct: purchased Bio Vision (BioVision), USA K547 / k547–100
T1 sequence (P35354 18-604): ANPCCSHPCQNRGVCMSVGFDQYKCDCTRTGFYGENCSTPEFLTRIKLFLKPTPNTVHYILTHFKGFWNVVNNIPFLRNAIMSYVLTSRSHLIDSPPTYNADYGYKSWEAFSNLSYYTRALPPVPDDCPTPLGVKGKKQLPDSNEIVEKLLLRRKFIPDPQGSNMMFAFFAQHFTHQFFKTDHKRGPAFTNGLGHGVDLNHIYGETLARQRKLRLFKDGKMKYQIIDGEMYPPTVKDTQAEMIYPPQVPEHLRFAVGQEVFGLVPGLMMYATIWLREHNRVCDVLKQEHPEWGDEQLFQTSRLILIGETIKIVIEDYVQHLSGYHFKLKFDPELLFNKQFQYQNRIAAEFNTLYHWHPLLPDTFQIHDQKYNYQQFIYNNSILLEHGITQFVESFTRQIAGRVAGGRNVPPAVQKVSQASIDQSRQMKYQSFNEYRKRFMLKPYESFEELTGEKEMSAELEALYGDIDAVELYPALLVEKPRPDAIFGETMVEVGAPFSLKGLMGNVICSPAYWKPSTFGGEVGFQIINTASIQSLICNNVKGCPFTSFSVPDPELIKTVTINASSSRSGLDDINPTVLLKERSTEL
Method: In this method we detect the fluorescence compound PGG2 which can easily be analysed with an excitation wavelength of 540 nm and emission wavelength of 590 nm. The result of COX-2 inhibitory activity has been summarised in Table 5 at two different concentrations.
Assay for cyclooxygenases (COXs) inhibition for COX-2 activity was determined by a fluorescence-based method using a COX-2 inhibitor screening assay kit (Bio vision, catalog # k547–100, S. millipitas Blvd, USA) in a total volume of 100 μL according to the directions provided with the kit manufacturer. The inhibitory activities of the tested compounds were based on the fluorometric detection of Prostaglandin G2 the intermediate product generated by the COX enzyme. The enzymes were preincubated for 5 min at 25 °C with the test compounds prior to addition of arachidonic acid. Celecoxib was used as positive control. Fluorescence was measured (Ex/Em = 540/590 nm) kinetically at 25 °C for 5–10 minutes. Two time point was chosen in the linear range of the plot and obtained the corresponding values (RFU1 and RFU2) The COX-2 inhibitory activity was calculated according to the equation. % Relative inhibition = Slope of EC − Slope of S/Slope of EC × 100. Where EC is the enzyme control and S is sample screen and slope of all the sample is calculated by dividing the net ΔRFU(RFU2 − RFU1) values by the ΔT (T2 − T1).

[3] = system: MDA-MB-231 (human breast cancer) cell line; assay: MTT cell viability assay in MDA-MB-231 cells; format: cell-based; details: Homo sapiens; for viability at 10 µM / viability at 25 µM / viability at 50 µM: MDA-MB-231, 72 h, 72 h, MTT, read-out: Cell Viability (%) ± SD; for viability at 10 µM: MDA-MB-231, 10 µM; for viability at 25 µM: MDA-MB-231, 25 µM; for viability at 50 µM: MDA-MB-231, 50 µM; for IC50: MDA-MB-231, MTT, treated for 48 h, 1, 5, 10, 25 and 50 µM
Method: IC50 values were determined by plotting values of percent cell viability against concentration of each of these compounds. […] The experiments were performed in triplicates, n = 3 and ± SE value was calculated for each data point.
The human breast cancer cell line MDA-MB-231 were cultured in Dulbecco’s Modified Eagle’s Medium (DMEM) (Gibco, St. Louis, USA) supplemented with 10% heat inactivated FBS (Fetal Bovine Serum, Gibco, USA) and 1% penicillin-streptomycin (Gibco Canada) in humidified CO2 incubator at 37 °C. The cells were maintained as a monolayer in 100 mm culture plate. The cells used for each experiment were of less than 8 passage number. Sub culturing of cells was performed every third day, followed by trypsin EDTA treatment.
Cell viability assay was performed as per standard protocols. […] Ltd, India). In brief, this is a homogeneous, colorimetric method for determining the number of viable cells in proliferation, cytotoxicity or chemosensitivity assays. MTT is bio reduced by cells into a formazan product that is soluble in the tissue culture medium. […] The absorbance of the formazan product at 595 nm was measured directly from 96-well assay plates without additional processing using a multimode plate reader (Bio-Rad) (iMark, India), as absorbance is directly proportional to the number of viable cells in culture. The percentage of viable cells in each group is determined with respect to the untreated control cells.

IC50 [1] [µM]	inhibition at 25 µM [2] [%]	inhibition at 50 µM [2] [%]	IC50 [3] [µM]	SMILES	viability at 1 µM [1] [%]	viability at 10 µM [1] [%]	viability at 25 µM [1] [%]	viability at 10 µM [3] [%]	viability at 25 µM [3] [%]	viability at 50 µM [3] [%]
4.67	6.7	27	35.5	OC[C@H]1O[C@@H](CC2=NNC(c3c[nH]c4ccccc34)C2)[C@H](O)[C@@H](O)[C@H]1O (stereo partly shown) [Compound 25, (2 S,3 R,4 R,5 R,6 R)-2-((5-(1H-indol-3-yl)-4,5-dihydro-1H-pyrazol-3-yl)methyl)-6-(hydroxy-methyl)tetrahydro-2H-pyran-3,4,5-triol]	66 ± 4.7	34 ± 2.5	19.9 ± 2.9	97.6 ± 3.36	54.2 ± 7.06	43.8 ± 13
		95		OC[C@H]1O[C@@H](Cc2cc(-c3c[nH]c4ccccc34)on2)[C@H](O)[C@@H](O)[C@H]1O [Compound 37, (2 S,3 R,4 R,5 R,6 R)-2-((5-(1H-indol-3-yl)isoxazol-3-yl)methyl)-6-(hydroxymethyl) tetrahydro-2H-pyran-3,4,5-triol]	30.8 ± 4.2	21.2 ± 3.8	19.1 ± 3.5	74.8 ± 10.7	76.4 ± 10.4	64.4 ± 7.77

Further lines, the molecule ahead of its results:

SMILES	IC50 [1] [µM]	inhibition at 25 µM [2] [%]	inhibition at 50 µM [2] [%]	IC50 [3] [µM]	viability at 1 µM [1] [%]	viability at 10 µM [1] [%]	viability at 25 µM [1] [%]	viability at 10 µM [3] [%]	viability at 25 µM [3] [%]	viability at 50 µM [3] [%]
O=C(/C=C/c1c[nH]c2ccccc12)C[C@@H]1O[C@H](CO)[C@@H](O)[C@H](O)[C@H]1O [Compound 9, (E)-4-(1H-indol-3-yl)-1-((2S,3R,4R,5S,6R)-3,4,5-trihydroxy-6-(hydroxymethyl)tetrahydro-2H-pyran-2-yl)but-3-en-2-one]	30	25	71	30.6	79.7 ± 1.18	62.3 ± 3.6	53.7 ± 4	71.1 ± 10.5	54 ± 11.2	36.3 ± 4.29
O=C(/C=C/c1c[nH]c2ccc(Cl)cc12)C[C@@H]1O[C@H](CO)[C@@H](O)[C@H](O)[C@@H]1O [Compound 20, (E)-4-(5-chloro-1H-indol-3-yl)-1-((2S,3S,4R,5S,6R)-3,4,5-trihydroxy-6-(hydroxymethyl)tetrahydro-2H-pyran-2-yl)but-3-en-2-one]	21	13.7	39		79.2 ± 2.6	58.7 ± 2.4	47.3 ± 7.6	56.7 ± 23.2	54.3 ± 16.3	62 ± 4.91
O=[N+]([O-])c1ccc2[nH]cc(-c3cc(C[C@@H]4O[C@H](CO)[C@@H](O)[C@H](O)[C@H]4O)no3)c2c1 [Compound 34, (2 R,3 S,4 R,5 R,6 S)-2-(hydroxymethyl)-6-((5-(5-nitro-1H-indol-3-yl)isoxazol-3-yl)methyl) tetrahydro-2H-pyran-3,4,5-triol]	0.71	4.9	59	22.3	41.3 ± 3.1	28.4 ± 0.9	23.1 ± 4.4	68.4 ± 5.36	46.1 ± 3.32	43.4 ± 0.26

Source: PMC7170901, “Design and efficient synthesis of pyrazoline and isoxazole bridged indole C-glycoside hybrids as potential anticancer agents” (Scientific Reports, 2020)
